Measured values published in patent publication EP4678638A1, “NEW E3 UBIQUITIN LIGASE LIGAND, PROTEIN DEGRADATION AGENT AND USE THEREOF” (priority 2023, dated 2024).
Where two headings read alike, the source gives them in different places.

What was measured:
MM.1S = assay: CCK-8 proliferation, MM.1S; format: cell-based; details: Table B10, compounds designed based on the IRAK4 inhibitors, MM.1S cells, read-out: Inhibitory activity (IC50, nM) on tumor cell proliferation, MM.1S
In short: (§1)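 Tumor cells were cultured at 37°C with 5% CO2, seeded, and after 24h treated with compounds at 10 concentrations starting at 10µM (5-fold serial dilutions).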

SR = assay: CCK-8 proliferation, SR; format: cell-based, Human; details: Table B10, compounds designed based on the IRAK4 inhibitors, SR cells, read-out: Inhibitory activity (IC50, nM) on tumor cell proliferation, SR
In short: as §1

Jurkat = assay: CCK-8 proliferation, Jurkat; format: cell-based, Human; details: Table B10, compounds designed based on the IRAK4 inhibitors, Jurkat cells, read-out: Inhibitory activity (IC50, nM) on tumor cell proliferation, Jurkat
Protocol: The tumor cells used herein were cultured in a cell culture medium listed in table A1 at 37°C in an incubator with 5% CO2. Prior to experimentation, all cell lines used were correctly identified by STR profiling, and tested negative for mycoplasma contamination using a mycoplasma detection kit through routine screenings. Table A1. Tumor cells and cell culture medium used in the present disclosure
IC50 values of the compounds of the present disclosure (including the compounds in Table 1, and compounds of examples) were measured using the Meilun Cell Counting Kit-8 kit from Dalian Meilun Biotech Co., Ltd. Assay details are as follows: tumor cells were seeded in a 96-well plate at a density listed in Table A2. After 24h, 100 µL of the inoculated cells were treated with 0.5µL of the compounds of the present disclosure (including the compounds in Tables 1 and 2, and compounds of examples) at 10 different successively decreasing concentrations (starting at the highest concentration of 10µM; 5-fold serial dilutions). After the cells were treated with the compounds of the present disclosure for a period of time, the cell viability detection reagent was added to the culture medium for cell viability assessment according to the instructions provided with the CCK-8 kit. […] The growth inhibition of the compounds of the present disclosure on cells was plotted by Prism Graphpad software, and the IC50 values of the compounds of the present disclosure were calculated therefrom. […] Seeding protocol and treatment time for tumor cells

[1] = target: T1, human Cereblon WT GST-tagged protein (Homo sapiens, UniProt Q96SW2); assay: CRBN binding, HTRF (CEREBLON BINDING kit); details: Table II-2, CRBN binding screening, HTRF; for inhibition at 0.5 µM: read-out: Inhibition rate (%) at 0.5µM; for inhibition at 2 µM: read-out: Inhibition rate (%) at 2 µM
T1 construct: purchased CISBIO 64BDCRBNPEH
T1 sequence (Q96SW2 whole entry): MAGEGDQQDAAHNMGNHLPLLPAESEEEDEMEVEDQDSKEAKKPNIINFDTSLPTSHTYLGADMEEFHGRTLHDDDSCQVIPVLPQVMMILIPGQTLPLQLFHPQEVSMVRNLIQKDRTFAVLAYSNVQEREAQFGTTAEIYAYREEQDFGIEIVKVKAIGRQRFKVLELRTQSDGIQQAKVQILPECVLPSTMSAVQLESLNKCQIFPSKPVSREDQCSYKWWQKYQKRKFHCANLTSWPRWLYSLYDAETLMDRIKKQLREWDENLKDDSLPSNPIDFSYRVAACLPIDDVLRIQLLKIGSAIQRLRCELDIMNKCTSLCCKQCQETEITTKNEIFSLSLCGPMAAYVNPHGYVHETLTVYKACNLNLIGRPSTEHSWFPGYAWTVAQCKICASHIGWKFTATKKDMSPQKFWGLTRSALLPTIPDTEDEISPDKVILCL
In short: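 Competitive HTRF: GST-tagged human WT Cereblon mixed with compound, Thalidomide-Re tracer and GST Eu antibody, incubated 3 h at room temperature. Signals read at 620 and 665 nm.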

RSK2 = target: T2, RSK2 (Homo sapiens, UniProt P51812); assay: Western blot degradation of RSK2 (hPBMC); format: cell-based; details: Table D8
T2 construct: evaluate the effects of the compounds of the present disclosure on the expression of target proteins in cells; endogenous in cells; host or cells: hPBMC
T2 sequence (P51812 whole entry): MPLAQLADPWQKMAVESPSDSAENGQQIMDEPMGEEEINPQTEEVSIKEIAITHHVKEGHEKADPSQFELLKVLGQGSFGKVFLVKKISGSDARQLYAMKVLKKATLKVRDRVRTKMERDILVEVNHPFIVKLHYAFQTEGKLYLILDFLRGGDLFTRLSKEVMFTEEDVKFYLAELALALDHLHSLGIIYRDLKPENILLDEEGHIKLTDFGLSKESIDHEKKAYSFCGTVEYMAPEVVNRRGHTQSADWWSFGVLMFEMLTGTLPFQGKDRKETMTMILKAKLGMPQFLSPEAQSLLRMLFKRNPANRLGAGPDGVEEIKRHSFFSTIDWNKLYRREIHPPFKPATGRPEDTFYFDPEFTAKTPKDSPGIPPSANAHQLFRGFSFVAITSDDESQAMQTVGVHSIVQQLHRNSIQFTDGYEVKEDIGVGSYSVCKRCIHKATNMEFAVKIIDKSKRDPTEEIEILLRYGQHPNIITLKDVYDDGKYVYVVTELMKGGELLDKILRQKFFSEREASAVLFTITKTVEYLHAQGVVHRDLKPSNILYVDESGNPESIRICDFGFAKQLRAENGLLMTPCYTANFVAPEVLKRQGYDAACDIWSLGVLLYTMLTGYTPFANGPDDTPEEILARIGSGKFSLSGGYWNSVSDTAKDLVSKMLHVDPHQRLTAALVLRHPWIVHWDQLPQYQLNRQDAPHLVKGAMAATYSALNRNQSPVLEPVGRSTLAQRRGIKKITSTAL
In short: (§2)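 After compound exposure, cells were harvested and lysates run on SDS-PAGE, transferred to nitrocellulose and probed with antibodies. Remaining target (%) was computed from band grayscale relative to an internal control protein and normalised; degradation (%) was 100% minus that.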

RSK1 = target: T3, RSK1 (Homo sapiens, UniProt Q15418); assay: Western blot degradation of RSK1 (hPBMC); format: cell-based; details: Table D8
T3 construct: evaluate the effects of the compounds of the present disclosure on the expression of target proteins in cells; endogenous in cells; host or cells: hPBMC
T3 sequence (Q15418 whole entry): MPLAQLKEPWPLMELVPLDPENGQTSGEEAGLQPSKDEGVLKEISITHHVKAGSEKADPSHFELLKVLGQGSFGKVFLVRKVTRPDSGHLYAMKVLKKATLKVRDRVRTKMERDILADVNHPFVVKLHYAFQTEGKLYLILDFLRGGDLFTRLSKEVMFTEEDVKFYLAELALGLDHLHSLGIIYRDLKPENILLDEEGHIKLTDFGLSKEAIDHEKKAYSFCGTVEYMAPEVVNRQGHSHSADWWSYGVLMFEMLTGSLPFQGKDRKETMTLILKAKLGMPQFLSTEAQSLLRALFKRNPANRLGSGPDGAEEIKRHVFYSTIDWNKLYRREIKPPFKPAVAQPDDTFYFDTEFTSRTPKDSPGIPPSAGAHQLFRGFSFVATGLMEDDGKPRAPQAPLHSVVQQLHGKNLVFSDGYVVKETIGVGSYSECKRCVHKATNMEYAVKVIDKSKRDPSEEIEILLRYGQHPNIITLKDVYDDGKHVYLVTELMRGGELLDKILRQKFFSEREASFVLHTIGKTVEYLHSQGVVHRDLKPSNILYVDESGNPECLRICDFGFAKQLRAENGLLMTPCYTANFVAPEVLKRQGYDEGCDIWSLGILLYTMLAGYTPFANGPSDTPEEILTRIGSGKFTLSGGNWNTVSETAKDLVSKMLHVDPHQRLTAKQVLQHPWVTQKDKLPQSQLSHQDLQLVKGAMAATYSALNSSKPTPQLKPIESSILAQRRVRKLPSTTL
In short: as §2

In the case of `O=C1CCC(c2ccc(CN3CCC(N4CCN(c5ccc6c(c5)nc(NC(=O)c5cccc(C(F)(F)F)c5)n6[C@H]5CC[C@@H](CO)CC5)CC4)CC3)cc2)C(=O)N1` (stereo partly drawn) [GT-05020, N-(5-(4-(1-(4-(2,6-dioxopiperidin-3-yl)benzyl)piperidin-4-yl)piperazin-1-yl)-1-((1s,4s)-4-(hydroxymethyl)cyclohexyl) -1H-benzo[d]imidazol-2-yl)-3-(trifluoromethyl)benzamide], the IC50 (MM.1S; Homo sapiens, MM1.S) is reported as 500 to 1000 nM, the IC50 (SR; Homo sapiens) is reported as 500 to 1000 nM and the IC50 (Jurkat; Homo sapiens) is reported as 500 to 1000 nM.

`O=C1CCN(c2ccc(CN3CCC(N4CCN(c5ccc6c(c5)nc(NC(=O)c5cccc(C(F)(F)F)c5)n6[C@H]5CC[C@@H](CO)CC5)CC4)CC3)cn2)C(=O)N1` [GT-05025, N-(5-(4-(1-((6-(2,4-dioxotetrahydropyrimidin-1(2H)-yl)pyridin-3-yl)methyl)piperidin-4-yl)piperazin-1-yl)-1-((1s,4s)-4-(hydroxymethyl)cyclohexyl) -1H-benzo[d]imidazol-2-yl)-3-(trifluoromethyl)benzamide] showed an IC50 (MM.1S) of 500 to 1000 nM, an IC50 (SR) of 500 to 1000 nM and an IC50 (Jurkat) of 500 to 1000 nM.

`C[C@@H]1CNC(=O)c2cc3ccc(C(=O)Nc4cnn(Cc5ccc(NCc6ccnc(N7CCC(=O)NC7=O)c6)cc5)c4)nc3n21` [GT-07795, (R)-N-(1-(4-(((2-(2,4-dioxotetrahydropyrimidin-1(2H)-yl)pyridin-4-yl)methyl)amino)benzyl)-1H-pyrazol-4-yl)-9-methyl-6-oxo-6,7,8,9-tetrahydropyrido[3',2':4,5]pyrrolo[1,2-a]pyrazine-2-carboxamide] was tested, and the inhibition at 0.5 µM [1] was 30 to 40%, the inhibition at 2 µM [1] was 40 to 53% and the “Degradation of substrate protein RSK2 (substrate protein remaining %)” value (RSK2) was “B (B is defined as substrate protein remaining % > 80%)”. The “Degradation of substrate protein RSK1 (substrate protein remaining %)” value (RSK1) was “A (A is defined as 0% ≤ substrate protein remaining % ≤ 80%)”.

With `C[C@@H]1CNC(=O)c2cc3ccc(C(=O)Nc4cnn(Cc5ccc(NCc6cncc(N7CCC(=O)NC7=O)c6)cc5)c4)nc3n21` [GT-07796, (R)-N-(1-(4-(((5-(2,4-dioxotetrahydropyrimidin-1(2H)-yl)pyridin-3-yl)methyl)amino)benzyl)-1H-pyrazol-4-yl)-9-methyl-6-oxo-6,7,8,9-tetrahydropyrido[3',2':4,5]pyrrolo[1,2-a]pyrazine-2-carboxamide] the inhibition at 0.5 µM [1] was 80 to 100%, the inhibition at 2 µM [1] was 80 to 100% and the “Degradation of substrate protein RSK2 (substrate protein remaining %)” value (RSK2) was “B (B is defined as substrate protein remaining % > 80%)”. For the same molecule, the “Degradation of substrate protein RSK1 (substrate protein remaining %)” value (RSK1) was “A (A is defined as 0% ≤ substrate protein remaining % ≤ 80%)”.

For `C[C@@H]1CNC(=O)c2cc3ccc(C(=O)Nc4cnn(Cc5ccc(N6CCN(Cc7ccc(C8CCC(=O)NC8=O)cc7)CC6)cc5)c4)nc3n21` (stereo partly drawn) [GT-07926, (9R)-N-(1-(4-(4-(4-(2,6-dioxopiperidin-3-yl)benzyl)piperazin-1-yl)benzyl)-1H-pyrazol-4-yl)-9-methyl-6-oxo-6,7,8,9-tetrahydropyrido[3',2':4,5]pyrrolo[1,2-a]pyrazine-2-carboxamide], the inhibition at 0.5 µM [1] was 60 to 80%, the inhibition at 2 µM [1] was 80 to 100% and the “Degradation of substrate protein RSK2 (substrate protein remaining %)” value (RSK2) was “B (B is defined as substrate protein remaining % > 80%)”. For the same molecule, the “Degradation of substrate protein RSK1 (substrate protein remaining %)” value (RSK1) was “A (A is defined as 0% ≤ substrate protein remaining % ≤ 80%)”.

With `C[C@@H]1CNC(=O)c2cc3ccc(C(=O)Nc4cnn(Cc5ccc(N6CCC(N(C)Cc7cc(C8CCC(=O)NC8=O)cnc7F)CC6)cc5)c4)nc3n21` (stereo partly drawn) [GT-07946, (9R)-N-(1-(4-(4-(((5-(2,6-dioxopiperidin-3-yl)-2-fluoropyridin-3-yl)methyl)(methyl)amino)piperidin-1-yl)benzyl)-1H-pyrazol-4-yl)-9-methyl-6-oxo-6,7,8,9-tetrahydropyrido[3',2':4,5]py rrolo[1,2-a]pyrazine-2-carboxamide] the inhibition at 0.5 µM [1] was 30 to 40%, the inhibition at 2 µM [1] was 60 to 80% and the “Degradation of substrate protein RSK2 (substrate protein remaining %)” value (RSK2) was “A (A is defined as 0% ≤ substrate protein remaining % ≤ 80%)”. For the same molecule, the “Degradation of substrate protein RSK1 (substrate protein remaining %)” value (RSK1) was “A (A is defined as 0% ≤ substrate protein remaining % ≤ 80%)”.

In the case of `C[C@@H]1CNC(=O)c2cc3ccc(C(=O)Nc4cnn(Cc5ccc(N6CCC(N7CCN(Cc8cccc(N9CCC(=O)NC9=O)c8)CC7)CC6)cc5)c4)nc3n21` [GT-07953, (R)-N-(1-(4-(4-(4-(3-(2,4-dioxotetrahydropyrimidin-1(2H)-yl)benzyl)piperazin-1-yl)piperidin-1-yl)benzyl)-1H-pyrazol-4-yl)-9-methyl-6-oxo-6,7,8,9-tetrahydropyrido[3',2':4,5]pyrrolo[1,2-a]pyrazine-2-carboxamide], the inhibition at 0.5 µM [1] is reported as 20 to 30%, the inhibition at 2 µM [1] is reported as 53 to 60% and the “Degradation of substrate protein RSK2 (substrate protein remaining %)” value (RSK2) is reported as “A (A is defined as 0% ≤ substrate protein remaining % ≤ 80%)”. The “Degradation of substrate protein RSK1 (substrate protein remaining %)” value (RSK1) was “A (A is defined as 0% ≤ substrate protein remaining % ≤ 80%)”.

In the case of `C[C@@H]1CNC(=O)c2cc3ccc(C(=O)Nc4cnn(Cc5ccc(N6CCC(N7CCN(Cc8ccc(N9CCC(=O)NC9=O)cn8)CC7)CC6)cc5)c4)nc3n21` [GT-07954, (R)-N-(1-(4-(4-(4-((5-(2,4-dioxotetrahydropyrimidin-1(2H)-yl)pyridin-2-yl)methyl)piperazin-1-yl)piperidin-1-yl)benzyl)-1H-pyrazol-4-yl)-9-methyl-6-oxo-6,7,8,9-tetrahydropyrido[3',2':4,5]pyrrolo[1,2-a]pyrazine-2-carboxamide], the inhibition at 0.5 µM [1] is reported as 60 to 80%, the inhibition at 2 µM [1] is reported as 80 to 100% and the “Degradation of substrate protein RSK2 (substrate protein remaining %)” value (RSK2) is reported as “A (A is defined as 0% ≤ substrate protein remaining % ≤ 80%)”. The “Degradation of substrate protein RSK1 (substrate protein remaining %)” value (RSK1) was “A (A is defined as 0% ≤ substrate protein remaining % ≤ 80%)”.

With `C[C@@H]1CNC(=O)c2cc3ccc(C(=O)Nc4cnn(Cc5ccc(N6CCC(N7CCN(Cc8cc(C9CCC(=O)NC9=O)cnc8F)CC7)CC6)cc5)c4)nc3n21` (stereo partly drawn) [GT-07960, (9R)-N-(1-(4-(4-(4-((5-(2,6-dioxopiperidin-3-yl)-2-fluoropyridin-3-yl)methyl)piperazin-1-yl)piperidin-1-yl)benzyl)-1H-pyrazol-4-yl)-9-methyl-6-oxo-6,7,8,9-tetrahydropyrido[3',2':4,5]pyrrolo[1,2-a]pyrazine-2-carboxamide] the inhibition at 0.5 µM [1] was 30 to 40%, the inhibition at 2 µM [1] was 53 to 60% and the “Degradation of substrate protein RSK2 (substrate protein remaining %)” value (RSK2) was “B (B is defined as substrate protein remaining % > 80%)”. The “Degradation of substrate protein RSK1 (substrate protein remaining %)” value (RSK1) was “A (A is defined as 0% ≤ substrate protein remaining % ≤ 80%)”.

With `C[C@@H]1CNC(=O)c2cc3ccc(C(=O)Nc4cnn(Cc5ccc(N6CCC(N7CCN(Cc8cncc(C9CCC(=O)NC9=O)c8)CC7)CC6)cc5)c4)nc3n21` (stereo partly drawn) [GT-07961, (9R)-N-(1-(4-(4-(4-((5-(2,6-dioxopiperidin-3-yl)pyridin-3-yl)methyl)piperazin-1-yl)piperidin-1-yl)benzyl)-1H-pyrazol-4-yl)-9-methyl-6-oxo-6,7,8,9-tetrahydropyrido[3',2':4,5]pyrrolo[1,2-a]pyrazine-2-carboxamide] the inhibition at 0.5 µM [1] was 20 to 30%, the inhibition at 2 µM [1] was 60 to 80% and the “Degradation of substrate protein RSK2 (substrate protein remaining %)” value (RSK2) was “A (A is defined as 0% ≤ substrate protein remaining % ≤ 80%)”. For the same molecule, the “Degradation of substrate protein RSK1 (substrate protein remaining %)” value (RSK1) was “A (A is defined as 0% ≤ substrate protein remaining % ≤ 80%)”.

For `C[C@@H]1CNC(=O)c2cc3ccc(C(=O)Nc4cnn(Cc5ccc(N6CCC(N7CCN(Cc8cc(N9CCC(=O)NC9=O)cnc8F)CC7)CC6)cc5)c4)nc3n21` [GT-07962, (R)-N-(1-(4-(4-(4-((5-(2,4-dioxotetrahydropyrimidin-1(2H)-yl)-2-fluoropyridin-3-yl)methyl)piperazin-1-yl)piperidin-1-yl)benzyl)-1H-pyrazol-4-yl)-9-methyl-6-oxo-6,7,8,9-tetrahydropyrido[3',2':4,5]pyrrolo[1,2-a]pyrazine-2-carboxamide], the inhibition at 0.5 µM [1] was 20 to 30%, the inhibition at 2 µM [1] was 53 to 60% and the “Degradation of substrate protein RSK2 (substrate protein remaining %)” value (RSK2) was “A (A is defined as 0% ≤ substrate protein remaining % ≤ 80%)”. The “Degradation of substrate protein RSK1 (substrate protein remaining %)” value (RSK1) was “A (A is defined as 0% ≤ substrate protein remaining % ≤ 80%)”.
